Patent US9173876B2, “Preparation and therapeutic applications of (2S,3R)-N-2-((3-pyridinyl)methyl)-1-azabicyclo[2.2.2]oct-3-yl)-3,5-difluorobenzamide” (Targacept, Inc., priority 2009, dated 2015)

What was measured:
[1] = tested on: ovalbumin-sensitized mice; assay: Airway hyperresponsiveness, Penh response to methacholine; assay type: in vivo, mouse; details: for Methacholine-induced increase in Penh values: FIG. 21
Method: Using the method of Hamelmann et al, (2S,3R)—N-2-((3-pyridinyl)methyl)-1-azabicyclo[2.2.2]oct-3-yl)-3,5-difluorobenzamide was evaluated for possible inhibition of airway hyper-responsiveness in mice. Briefly, ovalbumin (OVA)-sensitized animals, 12 animals per group, were challenged by nasal inhalation with aerosolized 5% OVA for 25 min on days 21, 23, and 25. The mice were treated with vehicle or (2S,3R)—N-2-((3-pyridinyl)methyl)-1-azabicyclo[2.2.2]oct-3-yl)-3,5-difluorobenzamide subcutaneously (s.c.) twice daily from day 21 to day 26 or once daily intratracheally (i.t.), preceding ovalbumin aerosol challenge by 30 min on days 21, 23 and 25 as well as methacholine challenge or bronchoalveolar lavage fluids (BALF) harvest on day 26. Dexamethasone, the reference standard, was administered at 3 mg/kg orally (p.o.) once daily 60 min before OVA challenge on day 21, 23 and 25 and 60 min before methacholine provocation or BALF harvest on day 26. Noninvasive measurements of airway responsiveness were performed by using whole body plethysmography, in which increases in enhanced pause (Penh) serve as an index of airway obstruction. Responses to inhaled methacholine were measured and calculated as percentage of respective baseline values. Unpaired Student's t-test was used for comparison between the vehicle control and the sham group; one-way ANOVA and Dunnett's post-hoc analyses were applied for comparison between the vehicle control and treated groups. Statistical significance is considered at P<0.05.

[2] = tested on: STZ rat model of diabetic neuropathy; assay: Streptozotocin (STZ)-induced diabetic neuropathy, Von Frey allodynia; assay type: in vivo; details: for Tactile allodynia (Von Frey): 30 min after administration
Method: Diabetes was induced by a 0.5 ml injection of streptozotocin (60 mg/kg) dissolved in citrate buffer (pH=6) into the tail vein of each rat. The development of diabetes was confirmed by measuring the blood glucose levels (BGL) of all animals on study day 3 (BGL>300 mg/dL). […] These animals were tested again for their BGL at study day 23.
(2S,3R)—N-2-((3-pyridinyl)methyl)-1-azabicyclo[2.2.2]oct-3-yl)-3,5-difluorobenzamide (0.1, 1 or 10 mg/kg p.o.) was administered as a solution of the hydrochloride salt in water once daily starting on study day 14 or study day 16 and continuing through study day 21 or 23, respectively. The control article gabapentin (in 0.9% saline, 150 mg/kg i.p.) was only administered on allodynia test days. Test item, vehicle or control article administration was based on evaluation of allodynia on study day 14. If allodynia was not present on study day 14, the animal was evaluated again at study day 16. Pain response was measured either on study days 14 and 21 or 16 and 23, 30 minutes after Test Item administration.
For the allodynia assessments, Von Frey filaments were used according to the methods of Chaplan and colleagues (1994). Briefly, the rats were placed in an enclosure and positioned on a metal mesh surface, but allowed to move freely. The rats' cabins were covered with red cellophane to diminish environmental distributions. The test began after cessation of exploratory behavior.
When the tip of a Von Frey fiber of given length and diameter was pressed against the skin at right angles, the force of application increases as long as the researcher continued to advance the probe until the fiber bent. After the fiber bent, the probe was advanced, causing the fiber to bend more, but without additional force being applied. The animal would indicate sensation by pulling back its paw. In the absence of a paw withdrawal response to the initially selected filament, a stronger stimulus was presented: in the event of paw withdrawal, the next weaker stimulus was chosen. In this fashion, the resulting pattern of positive and negative responses was used to determine the paw withdrawal threshold.
The set of Von Frey monofilaments provide an approximate logarithmic scale of actual force and a linear scale of perceived intensity. Below is a table showing the force (g) and its corresponding size of monofilaments.
All normally distributed data are presented as means±SEM, as well as the animals' individual values followed by a student T-test (Software: Microsoft® Excel). A p value<0.05 is considered to represent a significant difference. Due to the non-normal distribution of the allodynia data, descriptions of those data are provided as both mean (+SEM) and median values in order to represent their imprecise nature and skewed distribution.

[3] = Aqueous solubility (salt screen); details: free base form
normal rats = assay: Novel object recognition (NOR) task; assay type: in vivo, rat; details: for Duration of Effect, NOR (time after dosing): after 3rd administration; for Minimum Effective Dose (MED), NOR: oral, rats, follow-up study FIG. 2
Method: Memory was assessed by using the three-trial novel object recognition test. On the first day (exploratory trial), rats were allowed to explore an open arena (44.5×44.5×30.5 cm) for 6 min. On the second day (acquisition trial), rats were allowed to explore the same arena in the presence of two identical objects (both object A) for 3 minutes. On the third day (retention or recall trial), performance was evaluated by allowing the same animal to re-explore the arena for 3 minutes in the presence of two different objects: the familiar object A and a novel object B. An inter-trial interval of 24 hours was imposed between the three NOR trials. Recognition memory was assessed by comparing the time spent exploring a novel (object B) versus a familiar (object A) object during the recall trial. Recognition index was assessed for each animal and expressed as a ratio ((time B/time A+time B)×100).

Structure (SMILES): O=C(N[C@@H]1C2CCN(CC2)[C@H]1Cc1cccnc1)c1cc(F)cc(F)c1 [Compound A]
- Methacholine-induced increase in Penh values ([1]; 10 mg/kg IT qd): significant inhibition
- Methacholine-induced increase in Penh values ([1]; 0.1, 1, and 10 mg/kg bid s.c.): significant inhibition
- Protection against airway hyper-responsiveness (summary) ([1]; 0.1, 1 and 10 mg/kg bid s.c. and 10 mg/kg i.t.): significant protection against airway hyper-responsiveness
- Diabetic neuropathy pain, Von Frey assessment ([2]; 1 mg/kg and 10 mg/kg, compared to vehicle, FIG. 14): effective in reducing diabetic neuropathy pain
- Tactile allodynia (Von Frey) ([2]; 1 mg/kg p.o., study days 14/16, vs pretreatment p<0.01, vs vehicle p<0.05): inhibited allodynia
- Tactile allodynia (Von Frey) ([2]; 1 mg/kg p.o., study days 21/23, vs pretreatment p=0.012): inhibited allodynia
- Tactile allodynia (Von Frey) ([2]; 10 mg/kg p.o., study days 14/16, vs pretreatment p=0.012): inhibited allodynia
- Tactile allodynia (Von Frey) ([2]; 10 mg/kg p.o., study days 21/23, vs vehicle p<0.05): inhibited allodynia
- Water solubility [3]: limited
- NOR effect after single oral administration (recall only session) (normal rats; 0.28 μmol/kg oral on day 3 only): pro-cognitive effects
- Recognition index (normal rats; 0.28 μmol/kg oral, 0.5 h after dosing, FIG. 3): 68±4%
- Recognition index (normal rats; 0.28 μmol/kg oral, 2 h after dosing, FIG. 3): 71±2%
- Recognition index (normal rats; 0.28 μmol/kg oral, 6 h after dosing, FIG. 3): 62±2%
- Recognition index (normal rats; 0.28 μmol/kg oral, 24 h after acquisition trial, FIG. 1, vehicle 54±1%): 74±3%
- Recognition index (normal rats; 0.84 μmol/kg oral, 0.5 h after dosing, FIG. 4): 59±2%
- Recognition index (normal rats; 0.84 μmol/kg oral, 2 h after dosing, FIG. 4): 63±2%
- Recognition index (normal rats; 0.84 μmol/kg oral, 6 h after dosing, FIG. 4): 68±3%
- Recognition index (normal rats; 0.84 μmol/kg oral, 18 h after dosing, FIG. 4): 68±3%
- Recognition index (normal rats; 0.84 μmol/kg oral, 24 h after acquisition trial, FIG. 1, vehicle 54±1%): 70±4%
- Duration of Effect, NOR (time after dosing) (normal rats; 0.1 mg/kg (0.28 μmol/kg) oral, FIG. 3, listed as (2S,3R)-N-2-((3-pyridinyl)methyl)-1-azabicyclo[2.2.2]oct-3-yl)-3,5-difluorobenza): Duration 6 h (@ 0.1 mg/kg)
- Duration of Effect, NOR (time after dosing) (normal rats; 0.3 mg/kg (0.84 μmol/kg) oral, FIG. 4, listed as (2S,3R)-N-2-((3-pyridinyl)methyl)-1-azabicyclo[2.2.2]oct-3-yl)-3,5-difluorobenza): Duration 18 h (@ 0.3 mg/kg)
- Duration of Effect, NOR (time after dosing) (normal rats; 0.3 mg/kg (0.84 μmol/kg) oral, FIG. 4, listed as Formula I): ≤ 18 h
- Doses with statistically significant effect in NOR (normal rats; NOR vs. dose, FIG. 1): ≥ 0.1 mg/kg
- Doses with statistically significant effect in NOR (normal rats; minimum effective dose study, FIG. 2): ≥ 0.03 mg/kg
- Minimum Effective Dose (MED), NOR (normal rats; listed as (2S,3R)-N-2-((3-pyridinyl)methyl)-1-azabicyclo[2.2.2]oct-3-yl)-3,5-difluorobenza): MED = 0.084 μmol/kg
- Minimum Effective Dose (MED), NOR (normal rats; listed as (2S,3R)—N-2-((3-pyridinyl)methyl)-1-azabicyclo[2.2.2]oct-3-yl)-3,5-difluorobenza): 0.084 µmol/kg
